Data reported in patent US11633551B2, “Gaseous nitric oxide delivery system and methods of use” (Hansen Pharmaceutical, LLC, priority 2014, dated 2023).
Where “and” joins values, the source holds several entries; their conditions need not be identical. Equal values may be shown once.

What was measured:
Format in all cases: cell-based
cells = assay: MTT assay of cell viability after gNO administration; details: pressurized gNO at about 0.15 ATM (2.2 psi) for about 105 minutes
Protocol: Additionally, MTT assays were performed to assess cell viability after gNO administration. MTT assays are colorimetric-based assays used to assess cell viability as a function of color variation. As illustrated below in Table 2, cell viability after the administration of pressurized gNO at about 0.15 ATM (2.2 psi) for about 105 minutes varied from about 40%-50%.

[1] = system: Staphylococcus aureus, subspecies aureus Rosenbach (ATCC #12600); assay: Skin sample infection assay, 3 hours infection, bioburden after gNO; details: 1% gNO at 1 ATM (14.695 psi) for 90 minutes, flow rate 0.1 liters/minute; skin samples infected for 3 hours; FIG. 4
Protocol: (§1) FIG. 4 is a graph illustrating the effects of NO treatment on bioburden using an infection assay, after three hours of infection, according to an embodiment of the present disclosure. Skin samples infected for 3 hours with Staphylococcus, MRSA, Acinetobacter or Pseudomonas and subsequently exposed to 1% gNO at 1 ATM (14.695 psi) for 90 minutes at a flow rate of 0.1 liters/minute. Staphylococcus aureus, subspecies aureus Rosenbach (ATCC #12600); Staphylococcus aureus, subspecies aureus Rosenbach (ATCC #33591), methicillin-resistant strain of Staphylococcus aureus, phage type 92; Acinetobacter baumannii (ATCC #BAA-747); and Pseudomonas aeruginosa (ATTC #BAA-47). Control=infected, untreated tissue. Three sets of triplicates were performed per experiment.

[2] = system: MRSA, methicillin-resistant strain of Staphylococcus aureus (ATCC #33591); assay: as above; details: 1% gNO at 1 ATM (14.695 psi) for 90 minutes, flow rate 0.1 liters/minute; skin samples infected for 3 hours; FIG. 4
Protocol: as §1

[3] = system: Pseudomonas aeruginosa (ATTC #BAA-47); assay: as above; details: 1% gNO at 1 ATM (14.695 psi) for 90 minutes, flow rate 0.1 liters/minute; skin samples infected for 3 hours; FIG. 4
Protocol: as §1

[4] = system: Acinetobacter baumannii (ATCC #BAA-747); assay: as above; details: 1% gNO at 1 ATM (14.695 psi) for 90 minutes, flow rate 0.1 liters/minute; skin samples infected for 3 hours; FIG. 4
Protocol: as §1

S. aureus = assay: Colony counts after pressurized gNO, 24 hours infection, Franz cell (3-Ring) or Leg Device; details: 1% gNO after 24 hours of infection
Protocol: Experiments were also conducted to determine the infection-reducing capability of gNO administration at various pressures below 1.0 ATM (14.695 psi) (independent of and in addition to the pressure applied by the external environment) using both a Franz cell tissue culture device (i.e., 3-Ring) and a portable gNO deliver device (i.e., Leg Device). The results of one set of experiments are illustrated below in Table 1. gNO was administered at a 1% concentration after 24 hours of infection with S. aureus. Flow Rates (cm^3/min or cc) varied from about 100 to about 1500, Purge Flow (liters/min or LPM) varied from about 0.1 to about 1.5, and gNO Exposure Time varied between about 45 minutes to about 105 minutes among the different treatment groups and controls. Colony counts (log CFU) were performed at various dilutions, which are represented in the last eight columns labeled 0, 1×10^−1 through 1×10^−7 (“0” indicates no dilution).

[5] = Trial 0.15 ATM, 3-Ring, purge flow 0.1 LPM, flow rate 100 cc, 0.15 ATM, 105 min
[6] = Trial 0.25 ATM, 3-Ring, purge flow 0.1 LPM, flow rate 100 cc, 0.25 ATM, 90 min
[7] = Trial 0.5 ATM, 3-Ring, purge flow 0.1 LPM, flow rate 100 cc, 0.5 ATM, 90 min
[8] = Trial 0.5 ATM, Leg Device, purge flow 1.0 LPM, flow rate 500 cc, 0.5 ATM, 45 min
[9] = Trial 9 attempt, 3-Ring, purge flow 0.1 LPM, flow rate 100 cc, 0.25 ATM, 90 min
[10] = Trial Calf, Leg Device, purge flow 0.1 LPM, flow rate 100 cc, 0.5 ATM, 90 min
[11] = Trial Heel, Leg Device, purge flow 0.1 LPM, flow rate 100 cc, 0.5 ATM, 90 min
[12] = Trial Leg 1, Leg Device, purge flow 1.5 LPM, flow rate 1500 cc, 1 ATM, 90 min
[13] = Trial Leg 2, Leg Device, purge flow 1.5 LPM, flow rate 100 cc, 0.5 ATM, 90 min
[14] = Trial Leg purge, Leg Device, purge flow 0.5 LPM, flow rate 100 cc, 0.25 ATM, 90 min
[15] = Trial Toe, Leg Device, purge flow 0.1 LPM, flow rate 100 cc, 0.5 ATM, 90 min
[16] = Trial d Pressure, Leg Device, purge flow 0.1 LPM, flow rate 100 cc, 0.5 ATM, 45 min

Compound: [N]=O [gNO, Nitric Oxide]
- % Viability (cells; control = 100): 44.7% and 44.2% and 39.9%
- Cell viability (cells; summary of Table 2): 40%-50%
- Reduction of bioburden [1]: 5 fold
- Reduction of bioburden [2]: nearly completely eradicated
- Reduction of bioburden [3]: nearly completely eradicated
- Reduction of bioburden [4]: nearly completely eradicated
- Colony counts, 1 × 10−5 dilution (S. aureus; [5]): 0 log CFU
- Colony counts, 1 × 10−6 dilution (S. aureus; [5]): 0 log CFU
- Colony counts, 1 × 10−7 dilution (S. aureus; [5]): 0 log CFU
- Colony counts, 1 × 10−5 dilution (S. aureus; [6]): 0 log CFU
- Colony counts, 1 × 10−6 dilution (S. aureus; [6]): 0 log CFU
- Colony counts, 1 × 10−7 dilution (S. aureus; [6]): 0 log CFU
- Colony counts, 1 × 10−2 dilution (S. aureus; [7]): 0 log CFU
- Colony counts, 1 × 10−3 dilution (S. aureus; [7]): 0 log CFU
- Colony counts, 1 × 10−4 dilution (S. aureus; [7]): 0 log CFU
- Colony counts, 1 × 10−5 dilution (S. aureus; [7]): 0 log CFU
- Colony counts, 1 × 10−6 dilution (S. aureus; [7]): 0 log CFU
- Colony counts, 1 × 10−7 dilution (S. aureus; [7]): 0 log CFU
- Colony counts, 0 (no dilution) (S. aureus; [8]): 0 log CFU
- Colony counts, 1 × 10−1 dilution (S. aureus; [8]): 0 log CFU
- Colony counts, 1 × 10−2 dilution (S. aureus; [8]): 0 log CFU
- Colony counts, 1 × 10−3 dilution (S. aureus; [8]): 0 log CFU
- Colony counts, 1 × 10−4 dilution (S. aureus; [8]): 0 log CFU
- Colony counts, 1 × 10−5 dilution (S. aureus; [8]): 0 log CFU
- Colony counts, 1 × 10−6 dilution (S. aureus; [8]): 0 log CFU
- Colony counts, 1 × 10−7 dilution (S. aureus; [8]): 0 log CFU
- Colony counts, 0 (no dilution) (S. aureus; [9]): TNTC
- Colony counts, 1 × 10−1 dilution (S. aureus; [9]): TNTC
- Colony counts, 1 × 10−2 dilution (S. aureus; [9]): TNTC
- Colony counts, 0 (no dilution) (S. aureus; [10]): 0 log CFU
- Colony counts, 1 × 10−1 dilution (S. aureus; [10]): 0 log CFU
- Colony counts, 1 × 10−2 dilution (S. aureus; [10]): 0 log CFU
- Colony counts, 1 × 10−3 dilution (S. aureus; [10]): 0 log CFU
- Colony counts, 1 × 10−4 dilution (S. aureus; [10]): 0 log CFU
- Colony counts, 1 × 10−5 dilution (S. aureus; [10]): 0 log CFU
- Colony counts, 1 × 10−6 dilution (S. aureus; [10]): 0 log CFU
- Colony counts, 1 × 10−7 dilution (S. aureus; [10]): 0 log CFU
- Colony counts, 0 (no dilution) (S. aureus; [11]): 0 log CFU
- Colony counts, 1 × 10−1 dilution (S. aureus; [11]): 0 log CFU
- Colony counts, 1 × 10−2 dilution (S. aureus; [11]): 0 log CFU
- Colony counts, 1 × 10−3 dilution (S. aureus; [11]): 0 log CFU
- Colony counts, 1 × 10−4 dilution (S. aureus; [11]): 0 log CFU
- Colony counts, 1 × 10−5 dilution (S. aureus; [11]): 0 log CFU
- Colony counts, 1 × 10−6 dilution (S. aureus; [11]): 0 log CFU
- Colony counts, 1 × 10−7 dilution (S. aureus; [11]): 0 log CFU
- Colony counts, 0 (no dilution) (S. aureus; [12]): 0 log CFU
- Colony counts, 1 × 10−1 dilution (S. aureus; [12]): 0 log CFU
- Colony counts, 1 × 10−2 dilution (S. aureus; [12]): 0 log CFU
- Colony counts, 1 × 10−3 dilution (S. aureus; [12]): 0 log CFU
- Colony counts, 1 × 10−4 dilution (S. aureus; [12]): 0 log CFU
- Colony counts, 1 × 10−5 dilution (S. aureus; [12]): 0 log CFU
- Colony counts, 1 × 10−6 dilution (S. aureus; [12]): 0 log CFU
- Colony counts, 1 × 10−7 dilution (S. aureus; [12]): 0 log CFU
- Colony counts, 0 (no dilution) (S. aureus; [13]): 0 log CFU
- Colony counts, 1 × 10−1 dilution (S. aureus; [13]): 0 log CFU
- Colony counts, 1 × 10−2 dilution (S. aureus; [13]): 0 log CFU
- Colony counts, 1 × 10−3 dilution (S. aureus; [13]): 0 log CFU
- Colony counts, 1 × 10−4 dilution (S. aureus; [13]): 0 log CFU
- Colony counts, 1 × 10−5 dilution (S. aureus; [13]): 0 log CFU
- Colony counts, 1 × 10−6 dilution (S. aureus; [13]): 0 log CFU
- Colony counts, 1 × 10−7 dilution (S. aureus; [13]): 0 log CFU
- Colony counts, 0 (no dilution) (S. aureus; [14]): 0 log CFU
- Colony counts, 1 × 10−1 dilution (S. aureus; [14]): 0 log CFU
- Colony counts, 1 × 10−2 dilution (S. aureus; [14]): 0 log CFU
- Colony counts, 1 × 10−3 dilution (S. aureus; [14]): 0 log CFU
- Colony counts, 1 × 10−4 dilution (S. aureus; [14]): 0 log CFU
- Colony counts, 0 (no dilution) (S. aureus; [15]): 0 log CFU
- Colony counts, 1 × 10−1 dilution (S. aureus; [15]): 0 log CFU
- Colony counts, 1 × 10−2 dilution (S. aureus; [15]): 0 log CFU
- Colony counts, 1 × 10−3 dilution (S. aureus; [15]): 0 log CFU
- Colony counts, 1 × 10−4 dilution (S. aureus; [15]): 0 log CFU
- Colony counts, 1 × 10−5 dilution (S. aureus; [15]): 0 log CFU
- Colony counts, 1 × 10−6 dilution (S. aureus; [15]): 0 log CFU
- Colony counts, 1 × 10−7 dilution (S. aureus; [15]): 0 log CFU
- Colony counts, 0 (no dilution) (S. aureus; [16]): TNTC
- Colony counts, 1 × 10−1 dilution (S. aureus; [16]): TNTC
- Colony counts, 1 × 10−2 dilution (S. aureus; [16]): TNTC
- Colony counts, 1 × 10−3 dilution (S. aureus; [16]): TNTC
- Reduction of bioburden (summary of Table 1) (S. aureus; pressures as low as about 0.15 ATM (2.2 psi), exposure times of about 105 minutes): total kill
